Test results published in patent publication US11654203B2.

Tests used:
[1] = system: human colorectal cancer cells (HCT15); experiment: Colorectal cancer animal bio-distribution (gamma counter); type: in vivo, BALB/c nude mouse; settings: 25 mCi/kg, n=3
Source text: (3) There were four time points in each group and three mice at each time point.
(4) The animals were sacrificed at 2nd h, 4th h, 24th h and 48th h after dosage to take organs (brain, heart, lung, liver, kidney, spleen, stomach, large intestine, small intestine, tumor, muscle and blood).
(5) Tissue organs were weighed, and radioactivities were counted and read by a gamma counter.
(6) With a percentage (%) of a radioactivity count of Injected Dose (ID) in a radioactivity count of each gram (g) of tissue as unit (% ID/g), the line graph was drawn for showing.
The value was a percentage of Injected Dose in each gram of organs (% ID/g). […] Data was represented by an average value ±SEM (n=3).

[2] = system: human colorectal cancer cells (HCT15); experiment: NanoSPECT/CT imaging of colorectal cancer animal model; type: in vivo, BALB/c nude mouse; settings: caudal vein, 25 mCi/kg, imaged at 2, 4, 24, 48 h
Experimental: (1) Each BALB/c nude mouse that was 8 weeks old was subjected to subcutaneous injection of human colorectal cancer cells (HCT15, 1*10^6 cells) on a right hind leg, grew for 10-14 d, and started to be dosed with the drug when a cell tumor grew to a size of 50-100 mm^3.
(3) NanoSPECT/CT image analysis was carried out at 2nd h, 4th h, 24th h and 48th h after animal dosage (brand: Mediso).
(4) Obtained images were subjected to image recombination and outputting by VivoQuamt software.

O=C([O-])CN1CCN(CC(=O)[O-])CCN(CC(=O)[O-])CCN(CC(=O)[O-])CC1.[111In+3] [^111In-DOTA]
tumor absorbability ([1]; 2nd h after caudal vein dosage): 0.88 % ID/g
gathering degree at the tumor hypoxia position ([1]; 24th h after caudal vein dosage): 1.08 % ID/g
drug gathering at tumor hypoxia position, nanoSPECT/CT [2]: no obvious drug gathering phenomenon
